# Source: patent US20250230154A1, “COMPOUND HAVING SHP2 PROTEIN DEGRADING ACTIVITY, AND MEDICAL USES THEREOF” (UBIX THERAPEUTICS, INC., priority 2021, published 2025)
# Biological target: T1, SHP2 protein (Homo sapiens, UniProt Q06124)
# T1 sequence (Q06124 1-593): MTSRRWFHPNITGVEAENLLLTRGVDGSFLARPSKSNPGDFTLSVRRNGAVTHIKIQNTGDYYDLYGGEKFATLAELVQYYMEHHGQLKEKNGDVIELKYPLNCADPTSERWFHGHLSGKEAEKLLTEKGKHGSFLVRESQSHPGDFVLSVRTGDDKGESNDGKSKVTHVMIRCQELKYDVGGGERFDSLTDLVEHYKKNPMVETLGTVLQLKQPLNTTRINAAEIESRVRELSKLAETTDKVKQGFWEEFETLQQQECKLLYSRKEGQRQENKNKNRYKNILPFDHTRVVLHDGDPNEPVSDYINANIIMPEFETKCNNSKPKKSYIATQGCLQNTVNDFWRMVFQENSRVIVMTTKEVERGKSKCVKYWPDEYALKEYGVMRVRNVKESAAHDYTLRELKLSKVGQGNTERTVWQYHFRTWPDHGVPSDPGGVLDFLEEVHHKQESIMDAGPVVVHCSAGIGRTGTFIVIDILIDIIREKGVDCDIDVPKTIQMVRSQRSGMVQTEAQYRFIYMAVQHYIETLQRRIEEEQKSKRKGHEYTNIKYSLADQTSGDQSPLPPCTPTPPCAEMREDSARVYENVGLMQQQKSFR
# Assay: Measurement of SHP2 protein degradation in MV-4-11 cells (western blotting)
# Format: cell-based
# Design: endogenous in cells; host or cells: MV-4-11
# Conditions: for SHP2 degradation (%) 10 nM / SHP2 degradation (%) 100 nM / SHP2 degradation (%) 1000 nM: MV-4-11 cells, 24 hours
# In short: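 SHP2 protein levels were assessed by western blotting in MV-4-11 cells after a 24 hour compound treatment. Lysates were sonicated, centrifuged, normalized by BCA assay at 562 nm, run on Bis-tris 4-12% gels, transferred to NC membrane, probed with anti-SHPTP2 (70 kDa) and anti-GAPDH (37 kDa) antibodies, and detected on LI-COR Odyssey.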
SMILES,SHP2 degradation (%) 10 nM [%],SHP2 degradation (%) 100 nM [%],SHP2 degradation (%) 1000 nM [%],SHP2 protein degradation activity (in words) (comment on Table 4)
"CC(=O)N[C@H](C(=O)N1C[C@H](O)C[C@H]1C(=O)NCc1ccc(-c2scnc2C)cc1OCCN1CCN(C(=O)CC(=O)Nc2cccc(Sc3cnc(N4CCC(C)(CN)CC4)cn3)c2Cl)CC1)C(C)(C)C [Example 57, (2S,4R)-1-((S)-2-acetamido-3,3-dimethylbutanoyl)-N-(2-(2-(4-(3-((3-((5-(4-(aminomethyl)-4-methylpiperidin-1-yl)pyrazin-2-yl)thio)-2-chlorophenyl)amino)-3-oxopropanoyl)piperazin-1-yl)ethoxy)-4-(4-methylthiazol-5-yl)benzyl)-4-hydroxypyrrolidine-2-carboxamide]",95.7,99.8,99.7,–
"Cc1ncsc1-c1ccc(CNC(=O)[C@@H]2C[C@@H](O)CN2C(=O)[C@@H](NC(=O)C2(F)CC2)C(C)(C)C)c(OCCN2CCN(C(=O)C(C)C(=O)Nc3cccc(Sc4cnc(N5CCC(C)(CN)CC5)cn4)c3Cl)CC2)c1 (stereo partly drawn) [Example 58, (2S,4R)—N-(2-(2-(4-(3-((3-((5-(4-(aminomethyl)-4-methylpiperidin-1-yl)pyrazin-2-yl)thio)-2-chlorophenyl)amino)-2-methyl-3-oxopropanoyl)piperazin-1-yl)ethoxy)-4-(4-methylthiazol-5-yl)benzyl)-1-((S)-2-(1-fluorocyclopropane-1-carboxamido)-3,3-dimethylbutanoyl)-4-hydroxypyrrolidine-2-carboxamide]",90.0,99.9,–,–
"Cc1ncsc1-c1ccc(CNC(=O)[C@@H]2C[C@@H](O)CN2C(=O)[C@@H](NC(=O)C2(F)CC2)C(C)(C)C)c(OCCN2CCN(C(=O)C(C)(C)C(=O)Nc3cccc(Sc4cnc(N5CCC(C)(CN)CC5)cn4)c3Cl)CC2)c1 [Example 59, (2S,4R)—N-(2-(2-(4-(3-((3-((5-(4-(aminomethyl)-4-methylpiperidin-1-yl)pyrazin-2-yl)thio)-2-chlorophenyl)amino)-2,2-dimethyl-3-oxopropanoyl)piperazin-1-yl)ethoxy)-4-(4-methylthiazol-5-yl)benzyl)-1-((S)-2-(1-fluorocyclopropane-1-carboxamido)-3,3-dimethylbutanoyl)-4-hydroxypyrrolidine-2-carboxamide]",−2.0,3.0,–,somewhat decreased
"CC(=O)N[C@H](C(=O)N1C[C@H](O)C[C@H]1C(=O)NCc1ccc(-c2scnc2C)cc1OCCCN1CCN(C(=O)CC(=O)Nc2cccc(Sc3cnc(N4CCC(C)(CN)CC4)cn3)c2Cl)CC1)C(C)(C)C [Example 61, (2S,4R)-1-((S)-2-acetamido-3,3-dimethylbutanoyl)-N-(2-(3-(4-(3-((3-((5-(4-(aminomethyl)-4-methylpiperidin-1-yl)pyrazin-2-yl)thio)-2-chlorophenyl)amino)-3-oxopropanoyl)piperazin-1-yl)propoxy)-4-(4-methylthiazol-5-yl)benzyl)-4-hydroxypyrrolidine-2-carboxamide]",87.3,99.4,–,–
"Cc1ncsc1-c1ccc(CNC(=O)[C@@H]2C[C@@H](O)CN2C(=O)[C@@H](NC(=O)C2(F)CC2)C(C)(C)C)c(OCCCN2CCN(C(=O)CC(=O)Nc3cccc(Sc4cnc(N5CCC(C)(CN)CC5)cn4)c3Cl)[C@@H](C)C2)c1 [Example 64, (2S,4R)—N-(2-(3-((S)-4-(3-((3-((5-(4-(aminomethyl)-4-methylpiperidin-1-yl)pyrazin-2-yl)thio)-2-chlorophenyl)amino)-3-oxopropanoyl)-3-methylpiperazin-1-yl)propoxy)-4-(4-methylthiazol-5-yl)benzyl)-1-((S)-2-(1-fluorocyclopropane-1-carboxamido)-3,3-dimethylbutanoyl)-4-hydroxypyrrolidine-2-carboxamide]",45.9,96.6,–,–
Cc1ncsc1-c1ccc(CNC(=O)[C@@H]2C[C@@H](O)CN2C(=O)[C@@H](NC(=O)C2(F)CC2)C(C)(C)C)c(OCCCN2CCN(C(=O)CC(=O)Nc3cccc(Sc4cnc(N5CCC(C)(CN)CC5)cn4)c3Cl)[C@H](C)C2)c1 [Example 65],31.6,95.4,–,–

# Next, values leading:
SHP2 degradation (%) 10 nM [%],SHP2 degradation (%) 100 nM [%],SHP2 degradation (%) 1000 nM [%],SHP2 protein degradation activity (in words) (comment on Table 4),SMILES
59,94,95.5,–,"Cc1ncsc1-c1ccc(CNC(=O)[C@@H]2C[C@@H](O)CN2C(=O)[C@@H](NC(=O)C2(F)CC2)C(C)(C)C)c(OCCCN2CCN(C(=O)CC(=O)Nc3cccc(Sc4cnc(N5CCC(C)(CN)CC5)cn4)c3Cl)CC2)c1 [Example 60, (2S,4R)—N-(2-(3-(4-(3-((3-((5-(4-(aminomethyl)-4-methylpiperidin-1-yl)pyrazin-2-yl)thio)-2-chlorophenyl)amino)-3-oxopropanoyl)piperazin-1-yl)propoxy)-4-(4-methylthiazol-5-yl)benzyl)-1-((S)-2-(1-fluorocyclopropane-1-carboxamido)-3,3-dimethylbutanoyl)-4-hydroxypyrrolidine-2-carboxamide]"
82.5,96,–,–,"Cc1ncsc1-c1ccc(CNC(=O)[C@@H]2C[C@@H](O)CN2C(=O)[C@@H](NC(=O)C2(F)CC2)C(C)(C)C)c(OCCN2CCN(C(=O)CC(=O)Nc3cccc(Sc4cnc(N5CCC(C)(CN)CC5)cn4)c3Cl)[C@H](C)C2)c1 [Example 62, (2S,4R)—N-(2-(2-((R)-4-(3-((3-((5-(4-(aminomethyl)-4-methylpiperidin-1-yl)pyrazin-2-yl)thio)-2-chlorophenyl)amino)-3-oxopropanoyl)-3-methylpiperazin-1-yl)ethoxy)-4-(4-methylthiazol-5-yl)benzyl)-1-((S)-2-(1-fluorocyclopropane-1-carboxamido)-3,3-dimethylbutanoyl)-4-hydroxypyrrolidine-2-carboxamide]"
90.5,97,–,–,"Cc1ncsc1-c1ccc(CNC(=O)[C@@H]2C[C@@H](O)CN2C(=O)[C@@H](NC(=O)C2(F)CC2)C(C)(C)C)c(OCCN2CCN(C(=O)CC(=O)Nc3cccc(Sc4cnc(N5CCC(C)(CN)CC5)cn4)c3Cl)[C@@H](C)C2)c1 [Example 63, (2S,4R)—N-(2-(2-((S)-4-(3-((3-((5-(4-(aminomethyl)-4-methylpiperidin-1-yl)pyrazin-2-yl)thio)-2-chlorophenyl)amino)-3-oxopropanoyl)-3-methylpiperazin-1-yl)ethoxy)-4-(4-methylthiazol-5-yl)benzyl)-1-((S)-2-(1-fluorocyclopropane-1-carboxamido)-3,3-dimethylbutanoyl)-4-hydroxypyrrolidine-2-carboxamide]"
79,98.1,–,–,"COC(=O)[C@@H]1CN(C(=O)CC(=O)Nc2cccc(Sc3cnc(N4CCC(C)(CN)CC4)cn3)c2Cl)CCN1CCOc1cc(-c2scnc2C)ccc1CNC(=O)[C@@H]1C[C@@H](O)CN1C(=O)[C@@H](NC(=O)C1(F)CC1)C(C)(C)C [Example 66, (S)-methyl 4-(3-((3-((5-(4-(aminomethyl)-4-methylpiperidin-1-yl)pyrazin-2-yl)thio)-2-chlorophenyl)amino)-3-oxopropanoyl)-1-(2-(2-(((2S,4R)-1-((S)-2-(1-fluorocyclopropane-1-carboxamido)-3,3-dimethylbutanoyl)-4-hydroxypyrrolidine-2-carboxamido)methyl)-5-(4-methylthiazol-5-yl)phenoxy)ethyl)piperazine-2-carboxylate]"
68.3,98.1,–,–,"COC(=O)[C@H]1CN(C(=O)CC(=O)Nc2cccc(Sc3cnc(N4CCC(C)(CN)CC4)cn3)c2Cl)CCN1CCOc1cc(-c2scnc2C)ccc1CNC(=O)[C@@H]1C[C@@H](O)CN1C(=O)[C@@H](NC(=O)C1(F)CC1)C(C)(C)C [Example 67, Methyl (R)-4-(3-((3-((5-(4-(aminomethyl)-4-methylpiperidin-1-yl)pyrazin-2-yl)thio)-2-chlorophenyl)amino)-3-oxopropanoyl)-1-(2-(2-(((2S,4R)-1-((S)-2-(1-fluorocyclopropane-1-carboxamido)-3,3-dimethylbutanoyl)-4-hydroxypyrrolidine-2-carboxamido)methyl)-5-(4-methylthiazol-5-yl)phenoxy)ethyl)piperazine-2-carboxylate]"
